Assay results from patent US12558339B2, “Composition comprising (7S)-(+)-cyclopentyl carbarmic acid, 8,8-dimethyl-2-oxo-6,7-dihydro-2H,8H-pyrano[3,2-g]chromen-7-yl-ester as active ingredient for prevention, alleviation, or treatment of eye disease” (INSPHARMTECH INC., priority 2021, dated 2026).

Assays:
[1] = tested on: vascular endothelial growth factor (VEGF) in human retinal pigment epithelial cells (ARPE-19 cells); test: Western blotting of VEGF level in ARPE-19 cells; type: cell-based; conditions: FIG. 1B
Procedure: (§1) ARPE-19 cells (RID: CVCL 0145) and L-Wnt3a cells (RID: CVCL 0635) were acquired from American Type Culture Collection (ATCC) and cultured in a DMEM medium supplemented with 10% fetal bovine serum (FBS), 120 μg/mL penicillin and 200 μg/mL streptomycin. Human umbilical vein endothelial cells (HUVECs, RID: CVCL 2959) were purchased from CEFO (Cell Engineering for Origin) and cultured using an optimized medium (CEFOgro-HUVEC). Wnt3a-CM (Wnt3a-conditioned medium) was prepared using L-Wnt3a cells that secrete the Wnt-3a protein into the medium. First, the cells were cultured for 4 days and the medium was recovered and replaced with a fresh medium. After culturing for 3 days, the medium was recovered. The two media were combined and used after passing through a 0.22-μm filter. All the cells were cultured in a cell incubator under the condition of 37° C. and 5% CO2.
Whole cell proteins were obtained using a RIPA buffer. After treating the cells with an appropriate amount of a RIPA buffer supplemented with 1× protease inhibitor, the cells were reacted on ice while vortexing once every 10 minutes. After centrifuging at 13,000 rpm and at 4° C. for 10 minutes and quantifying the obtained supernatant by BRADFORD™ assay, […] of proteins were separated according to molecular weight through electrophoresis. […]

[2] = tested on: choroidal neovascularization (CNV)-induced rabbit model; test: Laser-induced choroidal neovascularization (CNV) rabbit model, fluorescein angiography, retinal fluorescence intensity; type: in vivo, Chinchilla rabbit; conditions: for Fluorescence intensity (% of control group): rabbit CNV, instillation 300 μg/eye 1/day, day 7 (G6, G7)
Source text: After obtaining 50 male Chinchilla rabbits weighing about 2.5-3.0 kg from DREAMBIO, their health status was checked during a 7-day acclimatization period, and healthy animals were used in the test.
After the acclimatization period, 42 healthy rabbits were selected and a mydriatic agent (MIDRIACIL™ 1% eye drop) was instilled into the right eye. After anesthetizing the animals, laser (ELITE, LUMENIS, USA) was irradiated under the condition of 532 nm, power 150 mW and duration 0.1 sec, and 6 spots were made in about 6 o'clock direction around the optic nerve.
After dividing the test animals into a total of 7 groups, G1 to G7, administration of the test substance was started on the day of the CNV induction using laser with the concentrations described in Table 2. In Table 2, EYLEA™ (Aflibercept) was used as a positive control substance. For intravitreal injection, 40 μL of the positive control substance (EYLEA™) was injected intravitreally into the right eye of the animal in the anesthetized state using a syringe equipped with a 31-gauge needle on the day of the CNV induction. For instillation, after the animal was taken out of the cage and corrected naturally by an assistant, 200 μL of the test substance was instilled into the center of the cornea of the right eye by using a pipette. In the case of “a)”, the instillation was divided into 4 times and each administration was spaced by 5 minutes.
Before the administration of the test substance (0) and on 7, 14, 28, 42 and 56 days after the administration, a mydriatic agent (MIDRIACIL™ 1% eye drop) was instilled into the right of the animal. Then, after anesthetizing the animal and injecting about 1 mL of a 2% fluorescein sodium salt solution via the ear vein, images were taken within about 2 minutes using a fundus camera (TRC-50IX, Topcon, Japan).
Retinal CNV and drug efficacy were confirmed using the retinal fluorescein fundus images. The fluorescein intensity of the irradiation area was analyzed using the ImageJ software (NIH, Bethesda, MD).
For the results of this test, the significance between the test groups was tested using parametric one-way ANOVA assuming the normality of the data. When significance was recognized, a post hoc test was performed using Dunnett's multiple comparison test. Statistical analysis was performed using PRISM 7.04 (GraphPad Software Inc., San Diego, CA, USA), and p<0.05 was considered statically significant.
The test substance of the example or the comparative example was dropped onto the eye of a rabbit wherein choroidal neovascularization (CNV) was induced by laser irradiation, for 7 days, 300 μg per each administration. On day 7 after the start of the test substance administration, the eye was imaged with a fundus camera to compare the effect of the test substance on intraocular vascular leakage and the fluorescence intensity of the retina was analyzed. […] Table 3 compares the relative fluorescence intensity (% of control group) of the irradiation area determined by analyzing the retinal fluorescein angiographic images of the control group (G1), the test group (G6) and the comparison group (G7).
For a rabbit wherein choroidal neovascularization (CNV) was induced by laser irradiation, EYLEA™ was intravitreally injected as a positive control, the eye drop of the example was administered by dropping onto the eye or EYLEA™ and the eye drop of the example were co-administered. […]

[3] = tested on: human endothelial cells (HUVECs); test: Cell viability test (CELLTITER-GLO luminescent assay) in HUVECs; type: cell-based; conditions: various concentrations, 48 hours, FIG. 1A
Procedure: as §1, with “The two media were combined and used after passing through a 0.22-μm filter. All the cells were cultured in a cell incubator under the condition of 37° C. and 5% CO2.” left out
HUVECs were inoculated into a 96-well plate with a transparent black bottom at 5,000 cells per well, incubated overnight, and then treated with a test substances (compound of Example (1) (CGK012) or decursin of Comparative Example (1)) at various concentrations together with a medium (total volume per well: 100 μL). After 48 hours, cell viability was measured using a CELLTITER-GLO® luminescent cell viability assay kit (Promega, G7572) according to the manufacturer's instructions. […] After mixing in an orbital shaker for 2 minutes for cell lysis, stabilization was induced at room temperature for 10 minutes, and then luminescence was measured. […]

[4] = tested on: C57BL/6J mice; test: Organ and tissue toxicity (blood GPT, BUN; liver and kidney histology); type: in vivo
Procedure: In order to investigate the effect on the organs (tissues) of C57BL/6J mice, blood was taken from the animals of a test group to which the compound of Example (1) was administered and a control group to which only a solvent was administered 8 weeks after the administration, and blood levels of GPT (glutamate-pyruvate transferase) and BUN (blood urea nitrogen) were measured using SELECT™ E (Vital Scientific NV, Netherlands). […] In addition, the liver and kidney were taken from each animal and subjected to histological observation under an optical microscope through a conventional tissue section preparation process.

[5] = tested on: ICR mice; test: Acute toxicity, oral, fatality rate at 24 hours; type: in vivo; conditions: 2.0 g/kg, n=5
Procedure: This experiment was conducted to investigate the acute (within 24 hours) toxicity of the compound of the present disclosure and determine its fatality rate when consumed in an excess amount in a short period of time. ICR mice were assigned to a control group (n=5) and a test group (n=5). Nothing was administered to the control group and the compound of Example (1) was orally administered to the test group at a concentration of 2.0 g/kg (about 50 times the amount used in general animal experiments).

[6] = G5: CGK012 administered alone, FIG. 6B, 6C

| Molecule | level of VEGF in ARPE-19 cells [1] | Fluorescence intensity (% of control group) [2] | cell viability of human endothelial cells (HUVECs) [3] | difference of retinal fluorescence intensity from the positive control EYLEA administration group (G2) [2, 6] | level of retinal fluorescence intensity as compared to the induced control group (G1) [2, 6] | relative fluorescence intensity (% of control group) ([2]; G5: CGK012 instillation 300 μg/eye 2/day, Day 7) | relative fluorescence intensity (% of control group) ([2]; G5: CGK012 instillation 300 μg/eye 2/day, Day 14) | relative fluorescence intensity (% of control group) ([2]; G5: CGK012 instillation 300 μg/eye 2/day, Day 28) | relative fluorescence intensity (% of control group) ([2]; G5: CGK012 instillation 300 μg/eye 2/day, Day 42) | relative fluorescence intensity (% of control group) ([2]; G5: CGK012 instillation 300 μg/eye 2/day, Day 56) | duration of the effect of inhibiting choroidal neovascularization ([2]; G5: single administration of CGK012 (eye drop, without EYLEA)) | blood level of BUN (blood urea nitrogen) vs control group ([4]; 8 weeks after the administration, kidney toxicity) | blood level of GPT (glutamate-pyruvate transferase) vs control group ([4]; 8 weeks after the administration, liver toxicity) | histological observation of liver and kidney ([4]; optical microscope) | fatality rate 24 hours after the administration [5] | relative fluorescence intensity (% of control group) ([2]; G2: EYLEA intravitreal 1600 μg/eye 1/3 weeks, Day 7) | relative fluorescence intensity (% of control group) ([2]; G2: EYLEA intravitreal 1600 μg/eye 1/3 weeks, Day 14) | relative fluorescence intensity (% of control group) ([2]; G2: EYLEA intravitreal 1600 μg/eye 1/3 weeks, Day 28) | relative fluorescence intensity (% of control group) ([2]; G2: EYLEA intravitreal 1600 μg/eye 1/3 weeks, Day 42) | relative fluorescence intensity (% of control group) ([2]; G2: EYLEA intravitreal 1600 μg/eye 1/3 weeks, Day 56) |
| --- | --- | --- | --- | --- | --- | --- | --- | --- | --- | --- | --- | --- | --- | --- | --- | --- | --- | --- | --- | --- |
| CC(C)=CC(=O)O[C@H]1Cc2cc3ccc(=O)oc3cc2OC1(C)C [decursin, reference compound] | did not show significant effect on the level of VEGF | 95.66 ± 10.80 % of control group | did not significantly induce the apoptosis of the HUVECs even at high concentrations |  |  |  |  |  |  |  |  |  |  |  |  |  |  |  |  |  |
| CC1(C)Oc2cc3oc(=O)ccc3cc2C[C@@H]1OC(=O)NC1CCCC1 [CGK012, (7S)-(+)-cyclopentylcarbarmic acid 8,8-dimethyl-2-oxo-6,7-dihydro-2H,8H-pyrano[3,2-g]chromen-7-yl-ester] | remarkably decreased VEGF | 75.52 ± 3.93 % of control group | significantly inhibited the survival of the HUVECs at high concentrations | no statistically significant difference | significantly low | 80.877 ± 8.905 % of control group | 79.116 ± 7.972 % of control group | 79.152 ± 6.642 % of control group | 79.137 ± 6.355 % of control group | 81.041 ± 10.391 % of control group | 8 weeks | no significant difference was observed | no significant difference was observed | No unusual abnormality was observed | all the animals of the control group and the test group survived |  |  |  |  |  |
| Aflibercept [EYLEA™, reference compound] |  |  |  |  |  |  |  |  |  |  |  |  |  |  |  | 78.474 ± 8.452 % of control group | 70.022 ± 7.008 % of control group | 69.348 ± 5.013 % of control group | 74.154 ± 9.129 % of control group | 84.087 ± 9.079 % of control group |
